Literature values as cited in patent US20110189689A1, “RIBOSWITCHES” (priority 2008, published 2011).

Columns and labels:
[1] = tested on: E. col±165 thiM RNA riboswitch; conditions: non-phosphorylated form of the thiamine analog
S. cerevisiae = conditions: presumably by binding to enzymes
[2] = tested on: TPP-specific riboswitches in bacteria and plants; conditions: via interaction with TPP-specific riboswitches in bacteria and plants

SMILES | affinity to the thiM RNA riboswitch [1] | growth rate of S. cerevisiae (S. cerevisiae) | antibiotic effect [2]
Cc1ncc(C[n+]2csc(CCO)c2C)c(=O)[nH]1 [oxythiamine] | strongly reduced affinity | can reduce the growth rate | 
Cc1ncc(C[n+]2cccc(CCOP(=O)(O)OP(=O)(O)O)c2C)c(N)n1 [PTPP, pyrithiamine pyrophosphate] |  |  | exert an antibiotic effect
